Reference: US7105566B2, “Methods of treatment during vascular procedures” (Allergan, Inc., priority 2002, dated 2006)
“And” between values parts separate entries of the source, which are not always exact repeats. Identical values can stand only once.

System: female ZDF rats
Assay: Serum triglycerides and cholesterol in female ZDF rats on a diabetogenic high fat diet, Compound 1 at 0.03-0.3 mg/kg
Type: in vivo, rat
Details: for Cholesterol day 8, 0 hr, Mean / Triglycerides day 8, 0 hr, Mean / Cholesterol day 0, 4 hr, Mean / Triglycerides day 0, 4 hr, Mean / Cholesterol day 7, 4 hr, Mean / Triglycerides day 7, 4 hr, Mean / Cholesterol day 3, 4 hr, Mean / Triglycerides day 3, 4 hr, Mean: group mean of 4 rats; for Cholesterol day 8, 0 hr, Mean / Triglycerides day 8, 0 hr, Mean / Cholesterol day 8, 0 hr / Triglycerides day 8, 0 hr: 24 hours after the last dosing; for Cholesterol day 0, 4 hr, Mean / Triglycerides day 0, 4 hr, Mean / Cholesterol day 0, 4 hr / Triglycerides day 0, 4 hr: day before dosing (baseline); for Cholesterol day 7, 4 hr, Mean / Triglycerides day 7, 4 hr, Mean / Cholesterol day 7, 4 hr / Triglycerides day 7, 4 hr: seventh day of dosing; for Cholesterol day 3, 4 hr, Mean / Triglycerides day 3, 4 hr, Mean / Cholesterol day 3, 4 hr / Triglycerides day 3, 4 hr: third day of dosing; for Cholesterol day 8, 0 hr / Triglycerides day 8, 0 hr / Cholesterol day 0, 4 hr / Triglycerides day 0, 4 hr / Cholesterol day 7, 4 hr / Triglycerides day 7, 4 hr / Cholesterol day 3, 4 hr / Triglycerides day 3, 4 hr: individual animals
Description: ZDF rats, which are hyperlipidemic and diabetic, were used as a model to test the effect of RAR antagonists/inhibitors on serum lipids. Female ZDF rats (10–11 weeks old) were fed a GMI 13004 diet, a diabetogenic, high fat diet, for 5–6 weeks. Compound 1 was dissolved in vehicle (2% DMSO, 98% corn oil). Compound 1 was administered at a dosage of 0.03 mg/kg, 0.1 mg/kg, and 0.3 mg/kg body weight. Dosings were performed at approximately 8 a.m. Serum was collected at approximately 12 p.m. on the day before dosing (Day 0, 4 hour); the third day of dosing (Day 3, 4 hour); the seventh day of dosing (Day 7, 4 hour); and 24 hours after the last dosing (Day 8, 0 hour). The levels of triglycerides and cholesterol in the serum samples were measured.

SMILES: CCc1ccc(C2=CC(C)(C)Sc3ccc(C#Cc4ccc(C(=O)O)cc4)cc32)cc1 [Compound 1, 4-[[4-(4-ethylphenyl)-2,2-dimethyl-(2H)-thiochromen-6-yl]-ethynyl]-benzoic acid]
- serum triglyceride levels as % of pre-treatment triglyceride levels (0.03 mg/kg oral): about 59%
- Cholesterol day 8, 0 hr, Mean (0.03 mg/kg oral): 110
- Triglycerides day 8, 0 hr, Mean (0.03 mg/kg oral): 781
- Cholesterol day 0, 4 hr, Mean (0.03 mg/kg oral): 123
- Triglycerides day 0, 4 hr, Mean (0.03 mg/kg oral): 1334
- Cholesterol day 7, 4 hr, Mean (0.03 mg/kg oral): 109
- Triglycerides day 7, 4 hr, Mean (0.03 mg/kg oral): 749
- Cholesterol day 3, 4 hr, Mean (0.03 mg/kg oral): 105
- Triglycerides day 3, 4 hr, Mean (0.03 mg/kg oral): 794
- Cholesterol day 8, 0 hr (0.03 mg/kg oral): 108 (2×) and 93 and 129
- Triglycerides day 8, 0 hr (0.03 mg/kg oral): 846 and 531 and 1230 and 516
- Cholesterol day 0, 4 hr (0.03 mg/kg oral): 114 and 129 (2×) and 120
- Triglycerides day 0, 4 hr (0.03 mg/kg oral): 1200 and 1245 and 1944 and 945
- Cholesterol day 7, 4 hr (0.03 mg/kg oral): 111 and 105 and 96 and 123
- Triglycerides day 7, 4 hr (0.03 mg/kg oral): 771 and 468 and 855 and 903
- Cholesterol day 3, 4 hr (0.03 mg/kg oral): 93 and 96 and 129 and 102
- Triglycerides day 3, 4 hr (0.03 mg/kg oral): 663 and 651 and 1197 and 666
- serum triglyceride levels as % of pre-treatment triglyceride levels (0.1 mg/kg oral): ~40%
- Cholesterol day 8, 0 hr, Mean (0.1 mg/kg oral): 105
- Triglycerides day 8, 0 hr, Mean (0.1 mg/kg oral): 479
- Cholesterol day 0, 4 hr, Mean (0.1 mg/kg oral): 125
- Triglycerides day 0, 4 hr, Mean (0.1 mg/kg oral): 1208
- Cholesterol day 7, 4 hr, Mean (0.1 mg/kg oral): 107
- Triglycerides day 7, 4 hr, Mean (0.1 mg/kg oral): 505
- Cholesterol day 3, 4 hr, Mean (0.1 mg/kg oral): 106
- Triglycerides day 3, 4 hr, Mean (0.1 mg/kg oral): 497
- Cholesterol day 8, 0 hr (0.1 mg/kg oral): 102 (2×) and 105 and 111
- Triglycerides day 8, 0 hr (0.1 mg/kg oral): 390 and 339 and 486 and 699
- Cholesterol day 0, 4 hr (0.1 mg/kg oral): 123 (2×) and 129 and 126
- Triglycerides day 0, 4 hr (0.1 mg/kg oral): 1284 and 993 and 1197 and 1356
- Cholesterol day 7, 4 hr (0.1 mg/kg oral): 114 and 90 and 111 (2×)
- Triglycerides day 7, 4 hr (0.1 mg/kg oral): 429 and 384 and 618 and 588
- Cholesterol day 3, 4 hr (0.1 mg/kg oral): 129 and 84 and 96 and 114
- Triglycerides day 3, 4 hr (0.1 mg/kg oral): 402 and 360 and 681 and 546
- serum triglyceride levels as % of pre-treatment triglyceride levels (0.3 mg/kg oral): ~14%
- Cholesterol day 8, 0 hr, Mean (0.3 mg/kg oral): 115
- Triglycerides day 8, 0 hr, Mean (0.3 mg/kg oral): 215
- Cholesterol day 0, 4 hr, Mean (0.3 mg/kg oral): 131
- Triglycerides day 0, 4 hr, Mean (0.3 mg/kg oral): 1550
- Cholesterol day 7, 4 hr, Mean (0.3 mg/kg oral): 119
- Triglycerides day 7, 4 hr, Mean (0.3 mg/kg oral): 215
- Cholesterol day 3, 4 hr, Mean (0.3 mg/kg oral): 101
- Triglycerides day 3, 4 hr, Mean (0.3 mg/kg oral): 282
- Cholesterol day 8, 0 hr (0.3 mg/kg oral): 102 and 120 and 123 and 114
- Triglycerides day 8, 0 hr (0.3 mg/kg oral): 222 and 180 and 195 and 261
- Cholesterol day 0, 4 hr (0.3 mg/kg oral): 105 and 141 and 156 and 123
- Triglycerides day 0, 4 hr (0.3 mg/kg oral): 882 and 1725 and 2244 and 1350
- Cholesterol day 7, 4 hr (0.3 mg/kg oral): 99 and 126 and 132 and 120
- Triglycerides day 7, 4 hr (0.3 mg/kg oral): 195 and 222 and 267 and 174
- Cholesterol day 3, 4 hr (0.3 mg/kg oral): 93 and 96 and 108 (2×)
- Triglycerides day 3, 4 hr (0.3 mg/kg oral): 282 and 234 and 297 and 315
- effect on serum cholesterol levels (0.03-0.3 mg/kg oral): effective at lowering serum cholesterol levels, although the effect was more modest than observed for serum triglycerides
